Measured values from article PMC6407913, “DREADD Agonist 21 Is an Effective Agonist for Muscarinic-Based DREADDs in Vitro and in Vivo” (ACS Pharmacology & Translational Science, 2018).
Values joined by “and” are separate entries in the source; they are usually repeats but may differ in a detail not shown here. Equal values may be shown once.

Key:
Assay type in all cases: cell-based
[1] = target: T1, 318 nonolfactory human GPCRs (Homo sapiens, UniProt O14626); conditions: GPR171; C21 5 µM
T1 construct: expressed in transfected cells; host or cells: HTLA cells, transient

[2] = target: T2, 318 nonolfactory human GPCRs (Homo sapiens, UniProt O15354); conditions: GPR37; C21 5 µM
T2 construct: expressed in transfected cells; host or cells: HTLA cells, transient

[3] = target: 318 nonolfactory human GPCRs (Homo sapiens, UniProt P14416); conditions: DRD2; C21 5 µM
[4] = target: 318 nonolfactory human GPCRs (Homo sapiens, UniProt P21917); conditions: DRD4; C21 5 µM
318 nonolfactory human GPCRs (Homo sapiens, UniProt P21917), sequence (P21917 whole entry): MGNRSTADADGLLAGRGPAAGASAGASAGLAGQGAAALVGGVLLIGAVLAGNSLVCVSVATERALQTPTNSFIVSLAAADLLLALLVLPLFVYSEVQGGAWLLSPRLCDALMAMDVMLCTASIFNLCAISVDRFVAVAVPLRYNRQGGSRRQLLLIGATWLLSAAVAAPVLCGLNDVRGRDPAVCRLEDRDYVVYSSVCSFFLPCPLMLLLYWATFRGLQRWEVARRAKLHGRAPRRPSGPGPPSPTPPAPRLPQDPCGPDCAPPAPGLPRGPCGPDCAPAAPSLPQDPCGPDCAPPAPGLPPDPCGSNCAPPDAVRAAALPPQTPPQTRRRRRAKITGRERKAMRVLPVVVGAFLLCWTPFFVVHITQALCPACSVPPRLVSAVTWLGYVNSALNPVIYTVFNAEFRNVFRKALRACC

[5] = target: T3, 318 nonolfactory human GPCRs (Homo sapiens, UniProt P24530); conditions: EDNRB; C21 5 µM
T3 construct: expressed in transfected cells; host or cells: HTLA cells, transient

[6] = target: 318 nonolfactory human GPCRs (Homo sapiens, UniProt P25103); conditions: TACR1; C21 5 µM
[7] = target: 318 nonolfactory human GPCRs (Homo sapiens, UniProt P28566); conditions: HTR1E; C21 5 µM
318 nonolfactory human GPCRs (Homo sapiens, UniProt P28566), sequence (P28566 whole entry): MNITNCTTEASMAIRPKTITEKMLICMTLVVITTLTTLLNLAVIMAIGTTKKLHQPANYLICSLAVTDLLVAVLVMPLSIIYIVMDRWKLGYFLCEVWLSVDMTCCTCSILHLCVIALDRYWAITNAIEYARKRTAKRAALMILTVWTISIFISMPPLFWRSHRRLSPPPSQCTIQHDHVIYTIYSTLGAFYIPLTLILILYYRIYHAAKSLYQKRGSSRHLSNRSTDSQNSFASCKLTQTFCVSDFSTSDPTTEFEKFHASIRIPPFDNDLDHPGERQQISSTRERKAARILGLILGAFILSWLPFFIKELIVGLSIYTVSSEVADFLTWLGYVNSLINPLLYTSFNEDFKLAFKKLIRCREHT

[8] = target: T4, 318 nonolfactory human GPCRs (Homo sapiens, UniProt P30968); conditions: GNRHR; C21 5 µM
T4 construct: expressed in transfected cells; host or cells: HTLA cells, transient
T4 sequence (P30968 whole entry): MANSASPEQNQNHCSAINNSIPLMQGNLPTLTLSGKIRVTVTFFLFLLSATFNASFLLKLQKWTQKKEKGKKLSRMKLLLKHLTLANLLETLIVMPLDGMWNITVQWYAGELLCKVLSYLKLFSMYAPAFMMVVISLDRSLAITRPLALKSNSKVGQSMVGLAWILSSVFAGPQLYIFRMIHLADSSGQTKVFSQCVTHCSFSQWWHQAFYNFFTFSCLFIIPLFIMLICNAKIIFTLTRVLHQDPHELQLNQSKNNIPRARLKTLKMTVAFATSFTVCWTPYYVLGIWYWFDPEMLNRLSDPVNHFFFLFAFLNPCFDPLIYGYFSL

[9] = target: 318 nonolfactory human GPCRs (Homo sapiens, UniProt P32239); conditions: CCKBR; C21 5 µM
[10] = target: T5, 318 nonolfactory human GPCRs (Homo sapiens, UniProt P32241); conditions: VIPR1; C21 5 µM
T5 construct: expressed in transfected cells; host or cells: HTLA cells, transient
T5 sequence (P32241 31-457): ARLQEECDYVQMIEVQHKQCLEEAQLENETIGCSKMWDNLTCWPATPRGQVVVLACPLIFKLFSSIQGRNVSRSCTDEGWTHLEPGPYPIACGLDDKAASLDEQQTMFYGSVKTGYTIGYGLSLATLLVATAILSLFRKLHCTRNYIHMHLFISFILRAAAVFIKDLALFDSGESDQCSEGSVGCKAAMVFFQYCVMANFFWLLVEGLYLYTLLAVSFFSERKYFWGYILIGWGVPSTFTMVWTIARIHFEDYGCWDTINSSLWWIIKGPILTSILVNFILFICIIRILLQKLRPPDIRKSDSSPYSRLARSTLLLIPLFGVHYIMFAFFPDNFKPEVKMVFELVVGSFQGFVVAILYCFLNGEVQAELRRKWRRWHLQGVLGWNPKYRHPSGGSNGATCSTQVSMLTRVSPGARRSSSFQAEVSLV

[11] = target: T6, 318 nonolfactory human GPCRs (Homo sapiens, UniProt P34995); conditions: PTGER1; C21 5 µM
T6 construct: expressed in transfected cells; host or cells: HTLA cells, transient
T6 sequence (P34995 whole entry): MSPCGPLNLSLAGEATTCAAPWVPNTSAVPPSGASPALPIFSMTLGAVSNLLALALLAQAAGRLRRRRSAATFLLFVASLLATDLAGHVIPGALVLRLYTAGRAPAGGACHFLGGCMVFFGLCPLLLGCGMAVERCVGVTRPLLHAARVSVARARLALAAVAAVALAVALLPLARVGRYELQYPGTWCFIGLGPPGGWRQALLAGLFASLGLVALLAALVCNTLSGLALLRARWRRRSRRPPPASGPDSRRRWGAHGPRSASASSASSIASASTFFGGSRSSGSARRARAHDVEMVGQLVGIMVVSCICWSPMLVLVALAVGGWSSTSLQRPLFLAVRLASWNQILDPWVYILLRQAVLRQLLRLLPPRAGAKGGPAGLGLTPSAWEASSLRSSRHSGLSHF

[12] = target: T7, 318 nonolfactory human GPCRs (Homo sapiens, UniProt P41231); conditions: P2RY2; C21 5 µM
T7 construct: expressed in transfected cells; host or cells: HTLA cells, transient

[13] = target: 318 nonolfactory human GPCRs (Homo sapiens, UniProt P43220); conditions: GLP1R; C21 5 µM
[14] = target: 318 nonolfactory human GPCRs (Homo sapiens, UniProt P47211); conditions: GAL1; C21 5 µM
[15] = target: 318 nonolfactory human GPCRs (Homo sapiens, UniProt P47872); conditions: SCTR; C21 5 µM
[16] = target: T8, 318 nonolfactory human GPCRs (Homo sapiens, UniProt P50391); conditions: NPY4R; C21 5 µM
T8 construct: expressed in transfected cells; host or cells: HTLA cells, transient

[17] = target: T9, 318 nonolfactory human GPCRs (Homo sapiens, UniProt P51582); conditions: P2RY4; C21 5 µM
T9 construct: expressed in transfected cells; host or cells: HTLA cells, transient

[18] = target: T10, 318 nonolfactory human GPCRs (Homo sapiens, UniProt Q01726); conditions: MC1R; C21 5 µM
T10 construct: expressed in transfected cells; host or cells: HTLA cells, transient

[19] = target: T11, 318 nonolfactory human GPCRs (Homo sapiens, UniProt Q14439); conditions: GPR176; C21 5 µM
T11 construct: expressed in transfected cells; host or cells: HTLA cells, transient

[20] = target: T12, 318 nonolfactory human GPCRs (Homo sapiens, UniProt Q6U736); conditions: OPN5; C21 5 µM
T12 construct: expressed in transfected cells; host or cells: HTLA cells, transient

[21] = target: T13, 318 nonolfactory human GPCRs (Homo sapiens, UniProt Q86SM8); conditions: MRGPRE; C21 5 µM
T13 construct: expressed in transfected cells; host or cells: HTLA cells, transient

[22] = target: T14, 318 nonolfactory human GPCRs (Homo sapiens, UniProt Q8NFJ6); conditions: PK2; C21 5 µM
T14 construct: expressed in transfected cells; host or cells: HTLA cells, transient

[23] = target: 318 nonolfactory human GPCRs (Homo sapiens, UniProt Q8TDS4); conditions: HCA2; C21 5 µM
318 nonolfactory human GPCRs (Homo sapiens, UniProt Q8TDS4), sequence (Q8TDS4 whole entry): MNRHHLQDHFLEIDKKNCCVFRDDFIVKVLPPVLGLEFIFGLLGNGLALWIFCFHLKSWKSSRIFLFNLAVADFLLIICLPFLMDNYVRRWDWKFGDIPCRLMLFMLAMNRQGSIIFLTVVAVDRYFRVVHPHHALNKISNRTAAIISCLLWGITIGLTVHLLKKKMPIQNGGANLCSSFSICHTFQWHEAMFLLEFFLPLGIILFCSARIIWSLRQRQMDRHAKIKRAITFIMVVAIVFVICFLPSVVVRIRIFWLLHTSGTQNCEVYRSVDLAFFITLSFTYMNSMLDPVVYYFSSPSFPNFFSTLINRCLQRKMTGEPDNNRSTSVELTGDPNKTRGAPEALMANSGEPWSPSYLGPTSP

[24] = target: T15, 318 nonolfactory human GPCRs (Homo sapiens, UniProt Q8TDS7); conditions: MRGPRD; C21 5 µM
T15 construct: expressed in transfected cells; host or cells: HTLA cells, transient
T15 sequence (Q8TDS7 whole entry): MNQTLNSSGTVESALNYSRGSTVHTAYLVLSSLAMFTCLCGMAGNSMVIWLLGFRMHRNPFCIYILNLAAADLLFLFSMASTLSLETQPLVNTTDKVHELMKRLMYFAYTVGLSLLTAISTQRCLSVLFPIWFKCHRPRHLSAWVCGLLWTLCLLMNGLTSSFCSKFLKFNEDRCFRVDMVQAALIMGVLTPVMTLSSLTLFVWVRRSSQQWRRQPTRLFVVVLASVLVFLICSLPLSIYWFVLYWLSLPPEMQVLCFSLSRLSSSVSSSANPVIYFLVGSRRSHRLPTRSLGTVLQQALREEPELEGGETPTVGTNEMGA

[25] = target: T16, 318 nonolfactory human GPCRs (Homo sapiens, UniProt Q96G91); conditions: P2RY11; C21 5 µM
T16 construct: expressed in transfected cells; host or cells: HTLA cells, transient

[26] = target: T17, 318 nonolfactory human GPCRs (Homo sapiens, UniProt Q96P66); conditions: GPR101; C21 5 µM
T17 construct: expressed in transfected cells; host or cells: HTLA cells, transient

[27] = target: T18, 318 nonolfactory human GPCRs (Homo sapiens, UniProt Q99677); conditions: LPA4; C21 5 µM
T18 construct: expressed in transfected cells; host or cells: HTLA cells, transient

[28] = target: T19, 318 nonolfactory human GPCRs (Homo sapiens, UniProt Q99705); conditions: MCHR1R; C21 5 µM
T19 construct: expressed in transfected cells; host or cells: HTLA cells, transient
T19 sequence (Q99705 whole entry): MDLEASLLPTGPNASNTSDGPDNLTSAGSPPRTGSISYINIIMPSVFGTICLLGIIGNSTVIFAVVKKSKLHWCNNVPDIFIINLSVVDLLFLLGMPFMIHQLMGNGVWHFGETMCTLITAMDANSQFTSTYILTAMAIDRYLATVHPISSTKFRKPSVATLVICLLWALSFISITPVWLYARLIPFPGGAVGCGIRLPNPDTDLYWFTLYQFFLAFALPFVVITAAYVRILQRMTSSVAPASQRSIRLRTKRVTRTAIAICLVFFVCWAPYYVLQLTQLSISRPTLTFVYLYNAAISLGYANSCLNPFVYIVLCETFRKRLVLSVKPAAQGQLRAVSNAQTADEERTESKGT

[29] = target: T20, 318 nonolfactory human GPCRs (Homo sapiens, UniProt Q9BXC0); conditions: HCA1; C21 5 µM
T20 construct: expressed in transfected cells; host or cells: HTLA cells, transient
T20 sequence (Q9BXC0 whole entry): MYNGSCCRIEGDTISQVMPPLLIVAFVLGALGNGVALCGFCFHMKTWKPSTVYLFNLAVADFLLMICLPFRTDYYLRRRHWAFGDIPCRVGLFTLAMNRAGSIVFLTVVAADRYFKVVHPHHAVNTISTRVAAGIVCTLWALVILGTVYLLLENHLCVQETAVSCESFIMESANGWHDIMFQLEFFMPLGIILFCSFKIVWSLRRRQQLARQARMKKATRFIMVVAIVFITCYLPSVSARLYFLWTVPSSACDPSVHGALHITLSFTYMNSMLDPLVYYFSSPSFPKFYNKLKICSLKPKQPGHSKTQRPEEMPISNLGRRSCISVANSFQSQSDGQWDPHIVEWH

[30] = target: T21, 318 nonolfactory human GPCRs (Homo sapiens, UniProt Q9BZJ7); conditions: GPR62; C21 5 µM
T21 construct: expressed in transfected cells; host or cells: HTLA cells, transient

[31] = target: T22, 318 nonolfactory human GPCRs (Homo sapiens, UniProt Q9H1C0); conditions: LPAR5; C21 5 µM
T22 construct: expressed in transfected cells; host or cells: HTLA cells, transient
T22 sequence (Q9H1C0 whole entry): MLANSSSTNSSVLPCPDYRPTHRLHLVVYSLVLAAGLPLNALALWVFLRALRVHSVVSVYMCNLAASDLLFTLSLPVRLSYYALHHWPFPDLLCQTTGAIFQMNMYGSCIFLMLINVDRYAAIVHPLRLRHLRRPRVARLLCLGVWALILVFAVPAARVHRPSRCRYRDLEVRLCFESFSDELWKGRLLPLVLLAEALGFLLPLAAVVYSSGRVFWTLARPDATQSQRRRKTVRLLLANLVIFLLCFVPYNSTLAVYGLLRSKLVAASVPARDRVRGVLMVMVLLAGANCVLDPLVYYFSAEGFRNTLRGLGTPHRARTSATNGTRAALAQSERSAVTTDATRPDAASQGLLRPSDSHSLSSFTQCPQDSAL

[32] = target: T23, 318 nonolfactory human GPCRs (Homo sapiens, UniProt Q9NS75); conditions: CYSLTR2; C21 5 µM
T23 construct: expressed in transfected cells; host or cells: HTLA cells, transient
T23 sequence (Q9NS75 whole entry): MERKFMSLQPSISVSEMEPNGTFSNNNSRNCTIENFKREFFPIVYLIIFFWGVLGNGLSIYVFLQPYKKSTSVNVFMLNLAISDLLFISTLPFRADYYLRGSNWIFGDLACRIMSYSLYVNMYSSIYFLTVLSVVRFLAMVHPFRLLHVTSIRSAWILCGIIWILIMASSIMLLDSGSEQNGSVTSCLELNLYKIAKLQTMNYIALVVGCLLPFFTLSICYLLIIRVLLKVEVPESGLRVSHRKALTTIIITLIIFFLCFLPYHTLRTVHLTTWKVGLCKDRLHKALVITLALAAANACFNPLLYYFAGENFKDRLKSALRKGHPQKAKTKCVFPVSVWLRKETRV

[33] = target: T24, 318 nonolfactory human GPCRs (Homo sapiens, UniProt Q9UJ42); conditions: GPR160; C21 5 µM
T24 construct: expressed in transfected cells; host or cells: HTLA cells, transient
T24 sequence (Q9UJ42 whole entry): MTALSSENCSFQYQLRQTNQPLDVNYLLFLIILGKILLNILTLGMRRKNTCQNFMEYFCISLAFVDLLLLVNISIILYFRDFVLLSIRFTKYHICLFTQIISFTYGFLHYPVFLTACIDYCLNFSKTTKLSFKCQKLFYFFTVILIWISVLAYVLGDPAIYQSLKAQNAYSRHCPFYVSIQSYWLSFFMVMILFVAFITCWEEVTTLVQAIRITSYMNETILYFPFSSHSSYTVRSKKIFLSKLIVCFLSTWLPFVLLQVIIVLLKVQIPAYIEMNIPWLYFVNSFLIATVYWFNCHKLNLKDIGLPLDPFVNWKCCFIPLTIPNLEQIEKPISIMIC

[34] = target: T25, 318 nonolfactory human GPCRs (Homo sapiens, UniProt Q9Y5Y4); conditions: GPR44; C21 5 µM
T25 construct: expressed in transfected cells; host or cells: HTLA cells, transient
T25 sequence (Q9Y5Y4 whole entry): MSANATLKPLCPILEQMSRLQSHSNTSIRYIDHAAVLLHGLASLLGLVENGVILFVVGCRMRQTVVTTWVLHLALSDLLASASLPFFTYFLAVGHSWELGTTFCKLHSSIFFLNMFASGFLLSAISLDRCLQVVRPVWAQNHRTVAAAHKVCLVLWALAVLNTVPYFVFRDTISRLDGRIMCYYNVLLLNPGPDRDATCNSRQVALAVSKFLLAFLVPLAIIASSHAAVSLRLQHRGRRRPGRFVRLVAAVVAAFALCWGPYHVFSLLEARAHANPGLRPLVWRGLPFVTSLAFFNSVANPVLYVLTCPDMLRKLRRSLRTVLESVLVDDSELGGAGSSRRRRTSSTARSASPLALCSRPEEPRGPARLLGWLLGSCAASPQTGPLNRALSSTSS

For c1ccc2c(c1)N=C(N1CCNCC1)c1ccccc1N2 [C21, 11-(1-piperazinyl)-5H-dibenzo[b,e][1,4]diazepine], the “FOLD OVER BASAL” value [1] was 0.6 fold and 0.5 fold and 0.8 fold, the “FOLD OVER BASAL” value [2] was 1.1 fold and 0.9 fold and 1.2 fold and 0.7 fold and the “FOLD OVER BASAL” value [3] was 8.7 fold and 13.6 fold and 9.4 fold and 16.1 fold. For the same compound, the “FOLD OVER BASAL” value [4] was 3.4 fold and 2.2 fold and 2 fold and 1.9 fold, the “FOLD OVER BASAL” value [5] was 0.8 fold and 1 fold and 0.5 fold and 0.7 fold and the “FOLD OVER BASAL” value [6] was 1.1 fold and 0.8 fold and 0.9 fold. For the same compound, the “FOLD OVER BASAL” value [7] was 1 fold and 0.9 fold and 1.1 fold, the “FOLD OVER BASAL” value [8] was 0.6 fold and 1.2 fold and 0.9 fold and 0.7 fold and the “FOLD OVER BASAL” value [9] was 1.8 fold and 2.1 fold and 1.9 fold and 1.2 fold. The “FOLD OVER BASAL” value [10] was 0.6 fold and 0.9 fold and 0.8 fold, the “FOLD OVER BASAL” value [11] was 0.9 fold and 1 fold and 1.6 fold and 0.8 fold and the “FOLD OVER BASAL” value [12] was 1.4 fold and 1.2 fold and 1.3 fold and 1 fold. The “FOLD OVER BASAL” value [13] was 0.6 fold and 0.8 fold and 0.7 fold and 0.5 fold, the “FOLD OVER BASAL” value [14] was 0.7 fold and 0.5 fold and 0.9 fold and 0.8 fold and the “FOLD OVER BASAL” value [15] was 0.9 fold and 1 fold. The “FOLD OVER BASAL” value [16] was 0.5 fold and 0.6 fold and 0.7 fold, the “FOLD OVER BASAL” value [17] was 1 fold and 0.9 fold and the “FOLD OVER BASAL” value [18] was 0.9 fold and 1.1 fold and 1 fold and 0.7 fold. The “FOLD OVER BASAL” value [19] was 0.3 fold and 0.6 fold and 0.5 fold and 0.4 fold, the “FOLD OVER BASAL” value [20] was 1.2 fold and 1.3 fold and 0.9 fold and the “FOLD OVER BASAL” value [21] was 0.7 fold and 0.8 fold. For the same compound, the “FOLD OVER BASAL” value [22] was 0.9 fold and 1 fold and 1.1 fold and 1.3 fold, the “FOLD OVER BASAL” value [23] was 1.2 fold and 1.1 fold and 1.3 fold and 1.4 fold and the “FOLD OVER BASAL” value [24] was 0.7 fold and 0.9 fold and 0.6 fold. The “FOLD OVER BASAL” value [25] was 1.1 fold and 0.8 fold and 0.6 fold and 0.9 fold, the “FOLD OVER BASAL” value [26] was 1.2 fold and 1 fold and 0.9 fold and the “FOLD OVER BASAL” value [27] was 1.2 fold and 1.1 fold and 0.8 fold. For the same compound, the “FOLD OVER BASAL” value [28] was 1 fold and 0.8 fold and 1.1 fold and 1.4 fold, the “FOLD OVER BASAL” value [29] was 1.8 fold and 1.3 fold and 1.7 fold and 0.9 fold and the “FOLD OVER BASAL” value [30] was 0.8 fold and 0.5 fold and 0.9 fold. For the same compound, the “FOLD OVER BASAL” value [31] was 0.8 fold and 1.2 fold and 0.6 fold and 0.7 fold, the “FOLD OVER BASAL” value [32] was 0.7 fold and 0.9 fold and 1.1 fold and the “FOLD OVER BASAL” value [33] was 1.3 fold and 1 fold and 0.8 fold. The “FOLD OVER BASAL” value [34] was 1.3 fold and 2.1 fold and 1.5 fold and 1.4 fold.
